Consider 4 molecules from patent publication US20160237400A1, “ISOLATION OF NON-EMBRYONIC STEM CELLS AND USES THEREOF” (The Jackson Laboratory, priority 2013, published 2016).

“Also recorded” adds a separate entry of the source.

Assay [1] relates to paclitaxel resistant (G3) IC#1 CSC library. In words: plate (colony formation) assay, paclitaxel-resistant CSC library. The format is cell-based, human. As to the method: (§1) Survivors were re-plated en masse, and cycled through two additional rounds of 100 nM paclitaxel for 3 hours with recovery in between for 10 days, after which visible colonies were selected and individually expanded as pedigrees (FIG. 28B). To determine relationships between these ad hoc, paclitaxel-resistant pedigrees from the library and the 92 randomly sampled pedigrees from the treatment-naïve IC#1 library assessed for CSC heterogeneity, their CNV profiles were mapped onto the heterogeneity map established for IC#1.
The GSEA data in the table above highlighted the PGR pathway. Analysis of gene expression in the IC#1 CSC library treated with successive rounds of paclitaxel indeed confirmed a progressive increase in PGR expression (FIG. 31). […] The fate of 25,000 colony forming units from the IC#1 CSC library and the paclitaxel resistant library (G3) following exposure to combinations of paclitaxel, RU486, and cisplatin were directly compared. RU486 is a PGR antagonist that has previously been tested and failed as a single agent in clinical trials for recurrent ovarian cancer.
Next, the long-term impact of these drug combinations on the paclitaxel-resistant G3 pool over successive rounds of exposure was investigated.
(§2) High-grade ovarian cancer was surgically resected, and tumor tissue was collected into cold F12 media (Gibco, USA) with 5% fetal bovine serum (HyClone, USA) and then minced by sterile scalpel into 0.2-0.5 mm^3 sizes to a viscous and homogeneous appearance. The minced tissue was digested in 2 mg/mL collagenase type IV (Gibco, USA) at 37° C. for 30-60 min with agitation. Dissociated cells were passed through a 70 μm Nylon mesh (Falcon, USA) to remove aggregates and then were washed four times in cold F12 media, and then seeded onto a feeder layer of lethally irradiated 3T3-J2 cells in c-FAD media modified to SCM-68 media by the addition of 125 ng/mL R-spondin1 (R&D systems, USA), 1 μM Jagged-1 (AnaSpec Inc., USA), 100 ng/ml human Noggin (Peprotech, USA), 2.5 μM Rock-inhibitor (Calbiochem, USA), 2 μM SB431542 (Cayman chemical, USA), and 10 mM nicotinamide (Sigma-Aldrich, USA).
Cells were cultured at 37° C. in a 7.5% CO2 incubator. The culture media was replaced every two days. Colonies were digested by 0.25% trypsin-EDTA solution (Gibco, USA) for 5-8 min and passaged every 7 to 10 days. Colonies were trypsinized by TrypLE Express solution (Gibco, USA) for 8-15 min at 37° C. and cell suspensions were passed through 30 μm filters (Miltenyi Biotec, Germany). Approximately 20,000 epithelial cells were seeded to each well of 6-well plate. Cloning cylinder (Pyrex, USA) and high vacuum grease (Dow Corning, USA) were used to select single colonies for pedigrees. Gene expression analyses were performed on cells derived from passage 2-8 (P2-P8) cultures.

Assay [2] concerns N11 CSC pedigree (IC#1 library). In words: paclitaxel challenge of sampled CSC pedigree N11. Type of assay: cell-based, human.
Assay [3] concerns CSCs from the IC#1 library (G0), high-grade ovarian cancer. In words: plate (colony formation) assay, rhodamine B stain, treatment-naive CSC library. Type of assay: cell-based, human. The method, then:
To probe for paclitaxel resistance in the IC#1 library of CSCs, a paclitaxel dose-response curved were established by challenging 10,000 CSCs with a spectrum of paclitaxel concentrations. […] The plates were then stained with rhodamine B. Rhodamine B-stained 100 nM paclitaxel treatment plate yielded less than 0.1% of the control colonies.
as §1, §2
Cells were cultured at 37° C. in a 7.5% CO2 incubator. The culture media was replaced every two days. Colonies were digested by 0.25% trypsin-EDTA solution (Gibco, USA) for 5-8 min and passaged every 7 to 10 days. […]

The subject of assay [4] is CSCs from the IC#2 library. The assay is described as follows: paclitaxel challenge of IC#2 CSCs. The format is cell-based, human. Conditions: parameters identical to IC#1 (100 nM, 3 hours, three rounds); 37 individual CSCs.
Assay [5] relates to CSC pedigrees sampled from Groups B, C, D, E, F and G of the IC#1 library. The assay is described as follows: paclitaxel challenge of sampled CSC pedigrees of Groups B to G. The format is cell-based, human.
The test system of assay [6] is CD166hi CSC clones from the IC#1 library. The assay is described as follows: drug challenge of CD166hi sorted CSC clones. Type of assay: cell-based, human. Conditions: clones flow sorted for CD166 from the IC#1 library, individually tested.
The subject of assay [7] is Krt5+ / Krt6+ cells in lung of Krt6-DTR mice. The following applies: in vivo.
For assay [8], the system named is stem cell colonies (DASCp63/Krt5) from Krt6-DTR and WT mouse lung. Type of assay: cell-based.

For the molecule `CC(C)C[C@H](NC(=O)[C@H](Cc1ccccc1)NC(=O)c1cnccn1)B(O)O` [bortezomib], the “effect towards resistant CSCs of IC#1 when used together with paclitaxel” value in assay [1] is “synthetic lethality”.
Regarding `CC(C)C[C@H](NC(=O)[C@H](CCc1ccccc1)NC(=O)CN1CCOCC1)C(=O)N[C@@H](Cc1ccccc1)C(=O)N[C@@H](CC(C)C)C(=O)[C@@]1(C)CO1` [carfilzomib], in assay [1], the “effect towards resistant CSCs of IC#1 when used together with paclitaxel” value is on record as “synthetic lethality”.
For `CC(=O)O[C@H]1C(=O)[C@@]2(C)[C@H]([C@H](OC(=O)c3ccccc3)[C@]3(O)C[C@H](OC(=O)[C@H](O)[C@@H](NC(=O)c4ccccc4)c4ccccc4)C(C)=C1C3(C)C)[C@]1(OC(C)=O)CO[C@@H]1C[C@@H]2O` [paclitaxel], the “cells survived initial challenge” value in assay [2] (initial challenge, single dose of 100 nM paclitaxel) is recorded as 17.5%. Besides, in assay [2] (third round of paclitaxel), the “resistance after two additional challenges” value is reported as around 100%. In assay [3] (100 nM paclitaxel for 3 hours, about 10,000 colony-forming units, rhodamine B stain), the “colonies relative to control colonies” value was “less than 0.1%”. In assay [3] (25,000 colony-forming units, single agent), the “activity against the treatment naive IC#1 G0 library” value was “strong activity”. Also, the “resistance to initial challenge” value in assay [3] (single dose of 100 nM paclitaxel, IC#1 library) was “little or no resistance”; in assay [5] (single dose of 100 nM paclitaxel, representative CSCs from the other six clusters) it was “little or no resistance”. Moreover, the “survival of triple paclitaxel challenge” value in assay [4] is “none of the 37 individual CSCs from the IC#2 library survived”. Moreover, the “resistance at the third round” value in assay [5] (CSCs within group B, third round of paclitaxel) is given as “less than 35%”. Also, the “survival (colonies) of the paclitaxel-resistant G3 pool” value in assay [1] (25,000 colony-forming units, G4 challenge) was 15%. Further, in assay [1] (Ru486 10 μM, paclitaxel 100 nM, cisplatin 20 μM), the “resistance over four additional successive rounds of exposure, measured by colony formation” value was “progressive resistance”. In assay [6], the “CD166hi clones tested with intrinsic resistance” value is 21%.
diphtheria toxin: in assay [7], the “reduction of clonogenic cell number versus WT mouse with DT (clonogenic assay)” value is on record as 70-80%. In assay [7] (mouse), the “loss of Krt5+ cells compared to wild type controls” value is 90% and the “loss of Krt6+ cells compared to wild type controls” value is given as “greater than 99%”. Besides, in assay [7] (mouse, ip), the “reduction of Krt5+ cell number versus WT (IF staining)” value came to 70% and the “reduction of Krt6+ cell number versus WT (IF staining)” value is given as around 90%. Also, in assay [8], the “fate of Krt6-DTR stem cell colonies on diphtheria toxin” value is “die within four days; also recorded: dies after 4 days”; the “fate of control (WT) colonies on diphtheria toxin” value is “continued to proliferate and expand in size; also recorded: looks normal”; the “sensitivity of Krt6 negative endothelial cells from Krt6-DTR mice” value is recorded as “insensitive”.
